Assay results from paper PMC5590477, “Biotinylated N-Acetyllactosamine- and N,N-Diacetyllactosamine-Based Oligosaccharides as Novel Ligands for Human Galectin-3” (Bioengineering, 2017).
“And” between values parts separate entries of the source, which are not always exact repeats. Identical values can stand only once. Blank lines part the entries; values can stand above or below the compound they belong to.

Columns and labels:
[1] = molecular target: T1, human His6Gal-3 (Homo sapiens, UniProt P17931); assay: Competitive inhibition of Gal-3 binding to immobilized asialofetuin (ASF), ELISA-type; conditions: for Relative Potency: from IC50, relative to free tetrasaccharide 6 (13 series) or 7 (14 series); for IC50: inhibition of Gal-3 binding to immobilized ASF (5 pmol), 1 h in PBS; for Relative Potency per Glycan: inhibitory potency per glycan, relative to 6 (13 series) or 7 (14 series)
T1 construct: made in house; host or cells: Escherichia coli Rosetta (DE3) pLysS
T1 sequence (P17931 whole entry): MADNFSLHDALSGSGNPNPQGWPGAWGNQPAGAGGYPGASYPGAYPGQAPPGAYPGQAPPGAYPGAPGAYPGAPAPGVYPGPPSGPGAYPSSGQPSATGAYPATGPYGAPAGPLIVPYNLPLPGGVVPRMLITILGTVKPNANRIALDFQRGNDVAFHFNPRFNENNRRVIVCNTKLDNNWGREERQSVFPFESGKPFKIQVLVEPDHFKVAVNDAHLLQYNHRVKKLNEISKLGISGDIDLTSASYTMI
Experimental: Neo-glycoproteins 13b, 13d, 13e and 14b, 14d, 14e, as well as glycans 1, 2, 6 and 7 were used in a competitive inhibition assay. Asialofetuin (ASF, 5 pmol in PBS) as the standard glycoprotein was immobilized overnight in microtiter plates (MaxiSorp, Nunc). After blocking as described before, different concentrations of inhibitor and His6Gal-3 were simultaneously incubated for one hour in PBS. Residual bound galectin was detected as described above. Evaluation of the measured data was done using Sigma Plot. All assays were reproduced in at least three independent measurements.

[2] = molecular target: T1, human His6Gal-3; assay: ELISA-type binding of Gal-3 to immobilized glycans and neo-glycoproteins; conditions: for Gal-3 binding to immobilized tetrasaccharide (in words): glycan (5 nmol) immobilized on aminoreactive surface; for selectivity for Gal-3 binding compared with Gal-1 (in words): immobilized glycans, 1 µM protein concentration
Experimental: (§1) The synthesized glycans and neo-glycoproteins were analyzed for binding of Gal-3 and Gal-1 in 96-well microtiter plate formats. Glycans 11 and 12, as well as the corresponding LacNAc-LacNAc-linker-NH2 1a and LacdiNAc-LacNAc-linker-NH2 2a (deprotected forms of 1 and 2) were immobilized via the amino group in aminoreactive microtiter plates (Immobilizer Amino, Nunc, Wiesbaden, Germany). The immobilization of 5 nmol glycan in sodium carbonate buffer (100 mM, pH 9.6) was done overnight. For immobilizing neo-glycoproteins, 5 pmol protein were incubated in PBS (pH 7.5) in MaxiSorp microtiter plates (Nunc) overnight. Wells were then washed with PBS-Tween (0.05% (v/v)) and blocked with 2% BSA in PBS followed by incubation for one hour with galectins diluted in EPBS. Incubation with anti-His6-peroxidase (Roche) was done subsequently. Microtiter plates were read out at 495 nm after conversion of OPD substrate (o-phenylenediamine, Dako, Hamburg, Germany). Measured data were analyzed using Sigma Plot (Systat software GmbH, Erkrath, Germany).

[3] = molecular target: T2, human His6Gal-1C2S (Homo sapiens, UniProt P09382, C3S); assay: ELISA-type binding of Gal-1 to immobilized glycans and neo-glycoproteins; conditions: 1 µM Gal-1, immobilized ligand 5 pmol per well
T2 construct: made in house; host or cells: Escherichia coli Rosetta (DE3) pLysS
T2 sequence (P09382 whole entry C3S): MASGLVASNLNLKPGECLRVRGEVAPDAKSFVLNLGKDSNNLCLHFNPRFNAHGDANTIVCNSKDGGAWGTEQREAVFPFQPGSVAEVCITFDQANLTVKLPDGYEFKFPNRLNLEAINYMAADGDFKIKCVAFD
Experimental: as §1

[4] = molecular target: T1, human His6Gal-3; assay: Surface plasmon resonance with immobilized Gal-3; assay type: binding; conditions: SPR, ligand in flow (20 µL/min) over immobilized Gal-3, one concentration, fit with Scrubber2; read-out: Apparent KD
Experimental: SPR spectroscopy was done with Reichert SR7500DC System (XanTec bioanalytics, Düsseldorf, Germany) and carboxymethyldextran hydrogel sensor chips complexed with Ni^2+ ions (200M, XanTec bioanalytics). These surfaces allow reversible immobilization of His6-tagged proteins. Human His6Gal-3 (5 pmol in EPBS) was immobilized on the sample channel with a flowrate of 10 µL/min after 5 mM NiCl2 solution was injected. The reference channel stayed untreated.
The binding experiments were carried out with a flow rate of 20 µL/min by injecting neo-glycoproteins 13a–f and 14a–f (2 pmol in PBS) and recently synthesized neo-glycoproteins 15a–f and 16a–f (2 pmol in PBS), as well as BSA and ASF as the control. The dissociation time was three minutes. Between the measurements, the surface was regenerated with 0.5 M Na EDTA (pH 8.5) to remove Ni^2+ together with Gal-3. Each cycle started with NiCl2 followed by Gal-3 application.
The measured data were subtracted by reference values and analyzed using Integrated SPRAutolink (Reichert technologies, Depew, NY, USA) and Scrubber2 (version 2.0c, BioLogic Software, Campbell ACT, Australia).

- Relative Potency [1]: 1.0 ± 0.2
- IC50 [1]: 7.66 ± 1.24 µM
- Relative Potency per Glycan [1]: 1.0 ± 0.2
Compound: CC(=O)N[C@@H]1[C@@H](O)[C@H](O[C@@H]2O[C@H](CO)[C@H](O)[C@H](O[C@@H]3O[C@H](CO)[C@@H](O[C@@H]4O[C@H](CNNC(=O)CCCCCNC(=O)CCCC[C@@H]5SCC6NC(=O)NC65)[C@H](O)[C@H](O)[C@H]4NC(C)=O)[C@H](O)[C@H]3NC(C)=O)[C@H]2O)[C@@H](CO)O[C@H]1NC(=S)NCCNC(=O)OC(C)(C)C (some centres unmarked) [Compound 7, 6-biotin LacdiNAc-LacNAc-linker-NH2-tBoc]

Compound: LacNAc-LacNAc-linker-NH2 [Compound 1a]
- Gal-3 binding to immobilized tetrasaccharide (in words) [2]: rather weak

Compound: LacdiNAc-LacNAc-linker-NH2 [Compound 2a]
- Gal-3 binding to immobilized tetrasaccharide (in words) [2]: essentially no binding

- Relative Potency [1]: 1.0 ± 0.1
- IC50 [1]: 14 µM and 14.8 µM
- Relative Potency per Glycan [1]: 1.0 ± 0.1
Compound: CC(=O)N[C@@H]1[C@@H](O)[C@H](O[C@@H]2O[C@H](CO)[C@H](O)[C@H](O[C@@H]3O[C@H](CO)[C@@H](O[C@@H]4O[C@H](CNNC(=O)CCCCCNC(=O)CCCC[C@@H]5SCC6NC(=O)NC65)[C@H](O)[C@H](O)[C@H]4O)[C@H](O)[C@H]3NC(C)=O)[C@H]2O)[C@@H](CO)O[C@H]1NC(=S)NCCNC(=O)OC(C)(C)C (some centres unmarked) [Compound 6, 6-biotin LacNAc-LacNAc-linker-NH2-tBoc]

- IC50 [1]: ~8 µM
Compound: CC(=O)N[C@@H]1[C@@H](O)[C@H](O[C@@H]2O[C@H](CO)[C@H](O)[C@H](O[C@@H]3O[C@H](CO)[C@@H](O[C@@H]4O[C@H](CO)[C@H](O)[C@H](O)[C@H]4NC(C)=O)[C@H](O)[C@H]3NC(C)=O)[C@H]2O)[C@@H](CO)O[C@H]1NC(=S)NCCNC(=O)OC(C)(C)C [Compound 2, LacdiNAc-LacNAc-linker-NH2-tBoc]

Compound: ASF: Asialofetuin, standard glycoprotein having nine N-glycosidic bound LacNAc units [reference compound]
- Binding signal Galectin-3 ([2]; 1 µM Gal-3, immobilized ligand 5 pmol per well): 0.38 ± 0.10
- Kd ([2]; Gal-3 concentration at half-maximal binding to immobilized ligand (5 pmol), one site saturation fit, read-out: Apparent Kd): 1.26 ± 0.25 µM
- Relative Potency ([2]; from apparent Kd, in relation to ASF): 1.00 ± 0.20
- Relative Potency per Glycan ([2]; from apparent Kd, in relation to ASF, per glycan): 0.11 ± 0.02
- Binding signal Galectin-1 [3]: 0.40 ± 0.07
- Kd [4]: 0.075 ± 0.002 µM

- Gal-3 binding to immobilized tetrasaccharide (in words) [2]: high binding signals
- selectivity for Gal-3 binding compared with Gal-1 (in words) [2]: high selectivity
Compound: CC(=O)N[C@@H]1[C@@H](O)[C@H](O[C@@H]2O[C@H](CO)[C@H](O)[C@H](O[C@@H]3O[C@H](CO)[C@@H](O[C@@H]4O[C@H](CNNC(=O)CCCCCNC(=O)CCCC[C@@H]5SCC6NC(=O)NC65)[C@H](O)[C@H](O)[C@H]4O)[C@H](O)[C@H]3NC(C)=O)[C@H]2O)[C@@H](CO)O[C@H]1NC(=S)NCCN (some centres unmarked) [Compound 8]

- Gal-3 binding to immobilized tetrasaccharide (in words) [2]: highest binding
- selectivity for Gal-3 binding compared with Gal-1 (in words) [2]: high selectivity
Compound: CC(=O)N[C@@H]1[C@@H](O)[C@H](O[C@@H]2O[C@H](CO)[C@H](O)[C@H](O[C@@H]3O[C@H](CO)[C@@H](O[C@@H]4O[C@H](CNNC(=O)CCCCCNC(=O)CCCC[C@@H]5SCC6NC(=O)NC65)[C@H](O)[C@H](O)[C@H]4NC(C)=O)[C@H](O)[C@H]3NC(C)=O)[C@H]2O)[C@@H](CO)O[C@H]1NC(=S)NCCN (some centres unmarked) [Compound 9]

- IC50 [1]: 14 µM
Compound: CC(=O)N[C@@H]1[C@@H](O)[C@H](O[C@@H]2O[C@H](CO)[C@H](O)[C@H](O[C@@H]3O[C@H](CO)[C@@H](O[C@@H]4O[C@H](CO)[C@H](O)[C@H](O)[C@H]4O)[C@H](O)[C@H]3NC(C)=O)[C@H]2O)[C@@H](CO)O[C@H]1NC(=S)NCCNC(=O)OC(C)(C)C [Compound 1, LacNAc-LacNAc-linker-NH2-tBoc]
